Test results: ChEMBL document CHEMBL5724696, “Autophagy assay results for EUbOPEN Chemogenomics Library” (2024)
Where “and” joins values, the source holds several entries; their conditions need not be identical. Equal entries are not always repeated.

How the values were obtained:
Format in all cases: functional, Homo sapiens
[1] = system: U2OS; assay: (§1) Here: values are normalized to the negative (DMSO; defined as 0% autophagy induction) and positive (250nM Torin1; mTOR inhibitor; defined as maximal inducer of autophagy = 100%) control compounds and represented as % of autophagy induction. […] The impact of autophagy induction on cells is complex and depends on the affected target. As such, the magnitude of a phenotype may not be equally mirrored in the %-value of autophagy induction and vice versa. The dynamics of the induction may indicate the mode of activation: e.g. activation via phosphorylation or a signaling cascade may occur fast, while activation via transcription factors may take considerably longer. […] Of note, treatment concentrations may be sub-optimal for specific compounds, leading to false negative annotations.; conditions: Culturing Media DMEM, 1 % Penicillin/Streptomycin, 10% Fetal bovin serum Add-On: No, Screening Media Control DMEM, Screening Media Samples DMEM
[2] = system: TERT-RPE1; assay: as §1; conditions: Culturing Media DMEM/F12 (1:1), 1 % Penicillin/Streptomycin, 10% Fetal bovin serum Add-On: No, Screening Media Control DMEM/F12 (1:1), Screening Media Samples DMEM/F12 (1:1)
[3] = system: U2OS; assay: as §1; conditions: Culturing Media DMEM, 1 % Penicillin/Streptomycin, 10% Fetal bovin serum Add-On: No, Screening Media Control DMEM, Screening Media Samples DMEM; remark: listed apart in the source
[4] = Compound Concentration 0.5 uM, Timepoint 12 hours
[5] = Compound Concentration 0.5 uM, Timepoint 24 hours
[6] = Compound Concentration 0.5 uM, Timepoint 36 hours
[7] = Compound Concentration 0.5 uM, Timepoint 60 hours
[8] = Compound Concentration 2 uM, Timepoint 12 hours
[9] = Compound Concentration 2 uM, Timepoint 24 hours
[10] = Compound Concentration 2 uM, Timepoint 36 hours
[11] = Compound Concentration 2 uM, Timepoint 60 hours
[12] = Compound Concentration 10 uM, Timepoint 12 hours
[13] = Compound Concentration 10 uM, Timepoint 24 hours
[14] = Compound Concentration 10 uM, Timepoint 36 hours
[15] = Compound Concentration 10 uM, Timepoint 60 hours

SMILES	autophagy induction [1, 4]	autophagy induction [1, 5]	autophagy induction [1, 6]	autophagy induction [1, 7]	autophagy induction [1, 8]	autophagy induction [1, 9]	autophagy induction [1, 10]	autophagy induction [1, 11]	autophagy induction [1, 12]	autophagy induction [1, 13]	autophagy induction [1, 14]	autophagy induction [1, 15]	autophagy induction [3, 4]	autophagy induction [3, 5]	autophagy induction [3, 6]	autophagy induction [3, 7]	autophagy induction [3, 8]	autophagy induction [3, 9]	autophagy induction [3, 10]	autophagy induction [3, 11]	also measured
Cl.Clc1ccc(CCCOCCCN2CCCCC2)cc1 [PITOLISANT HYDROCHLORIDE]	15.5533%	6.616%	-57.7817%	-0.2681%	-2.233%	-2.143%	-60.8013%	-1.476%	10.0351%	1.34%	-57.6898%	-1.026%	13.8608%	9.201%	8.758%	0.1501%	-8.536%	-1.42%	-3.922%	-5.605%	autophagy induction ([2]; Compound Concentration 0.5 uM, Timepoint 12 hours, 12 h, 0.5 µM): -3.0454% and 2.896%; autophagy induction ([2]; Compound Concentration 0.5 uM, Timepoint 24 hours, 24 h, 0.5 µM): -1.513% and 3.003%; autophagy induction ([2]; Compound Concentration 0.5 uM, Timepoint 36 hours, 36 h, 0.5 µM): -3.944% and 2.632%; autophagy induction ([2]; Compound Concentration 0.5 uM, Timepoint 60 hours, 60 h, 0.5 µM): -4.171% and 0.01183%; autophagy induction ([2]; Compound Concentration 2 uM, Timepoint 12 hours, 12 h, 2 µM): 0.8347% and 2.672%; autophagy induction ([2]; Compound Concentration 2 uM, Timepoint 24 hours, 24 h, 2 µM): 0.6662% and 3.448%; autophagy induction ([2]; Compound Concentration 2 uM, Timepoint 36 hours, 36 h, 2 µM): -1.283% and 2.753%; autophagy induction ([2]; Compound Concentration 2 uM, Timepoint 60 hours, 60 h, 2 µM): -3.185% and 1.301%; autophagy induction ([2]; Compound Concentration 10 uM, Timepoint 36 hours, 36 h, 10 µM): -0.5799% and 21.0375%; autophagy induction [3, 12]: 1.329%; autophagy induction [3, 13]: 3.348%; autophagy induction [3, 14]: 1.993%; autophagy induction [3, 15]: 3.566%
CNc1nc(NCc2ccc(NS(C)(=O)=O)cc2Cl)cc(-c2ccccn2)n1	-4.8332%	-1.906%	-1.0253%	-0.2766%	-0.6465%	0.2341%	-0.0484%	0.9042%	-8.81%	-3.343%	-3.38%	-6.97%	14.6542%	1.484%	3.538%	8.159%	23.6541%	10.7985%	11.9727%	23.1222%	autophagy induction [2, 4]: -1.3719%; autophagy induction [2, 5]: -4.63%; autophagy induction [2, 6]: -8.2685%; autophagy induction [2, 7]: -4.377%; autophagy induction [2, 8]: 1.95%; autophagy induction [2, 9]: -3.372%; autophagy induction [2, 10]: -5.053%; autophagy induction [2, 11]: 1.232%; autophagy induction [2, 12]: 14.7912%; autophagy induction [2, 13]: 21.0269%; autophagy induction [2, 14]: 30.7963%; autophagy induction [2, 15]: 56.217%; autophagy induction [3, 12]: 27.3974%; autophagy induction [3, 13]: 31.2749%; autophagy induction [3, 14]: 36.9575%; autophagy induction [3, 15]: 46.6456%
